US20220313769A1, “NEW ANTIOXIDANT COMPOSITION FOR WOUND HEALING” (HISTOCELL, S.L., priority 2019, published 2022)

System: epithelial fibroblasts
Assay: In vitro wound healing assay or scratch assay
Type: cell-based
Conditions: 0.001% lycopene compared to 5 mM NAC
Method: The in vitro wound healing assay or scratch assay measures the capacity of a product to stimulate cellular proliferation (epithelial fibroblasts or keratinocytes) and close a gash without cells in a cellular monolayer in the culture tissue. For the gash to be homogeneous in all the wells, the cells are seeded in wells containing silicone blocks of the same size, which prevent adhesion of the cells in the area occupied by the block. Thus, epithelial fibroblasts were seeded in 24-well plates with the silicone blocks or barriers. After incubating for 12 hours, the barriers were removed and the cells were incubated for 24-72 hours with medium that contained the components separately or combined [different concentrations of locust bean galactomannan (LBG, 0.2, 0.1 and 0.01%), lycopene (0.001%)] and acetylcysteine (NAC, 5 mM). The entire surface of the well covered by the cells or the number of cells was estimated based on the images obtained of the wells with different treatments.

CC(C)=CCC/C(C)=C/C=C/C(C)=C/C=C/C(C)=C/C=C/C=C(C)/C=C/C=C(C)/C=C/C=C(\C)CCC=C(C)C [lycopene]
Capacity of migration of the fibroblasts (FIG. 2B legend): higher capacity of migration | In vitro healing (FIG. 2B): induced in vitro healing better
